Results reported in publication PMC6104039 (Nature Communications, 2018).
“And” between values parts separate entries of the source, which are not always exact repeats. Equal values may be shown once.

System: HEK293 cells
Assay: Endogenous ceramide, HexCer and SM levels in cells treated 24 h, targeted LC-MS/MS
Assay type: cell-based
Details: 24 h
Description: Lipids were then extracted using MTBE/methanol/water as described above.
HEK293 cell culture experiment: Levels of each lipid in P053-treated HEK293 cells were normalised to the mean of the vehicle control group, and each concentration was compared to the control using ANOVA with Dunnett’s post-test. P values were adjusted for multiple comparisons in GraphPad PRISM.
Supplementary Figure 1. Ceramide, SM, and HexCer levels in HEK293 cells treated with
P053. Absolute lipid levels were determined by targeted LC-MS/MS, relative to external
standard curves. Results are mean ± SEM (n = 4) from one of two identical experiments.
Statistically significant results, based on two independent experiments, are as indicated in
Figure 2b-d. Raw data for these figures is provided in Supplementary Data File 1.

## C[C@@](N)(CO)CCc1ccc(OCc2ccc(Cl)c(Cl)c2)cc1 [P053, (S)-2-amino-4-(4-(3,4-dichlorobenzyloxy)phenyl)-2-methylbutan-1-ol]
100 nM
  reduction of C18:0 ceramide: 53%
  C18 HexCer: selectively reduced
  C18 SM: selectively reduced
  C24:0 ceramide: minor increase
  other forms of ceramide: No other forms of ceramide were reduced
HEK293 cells, P053 10 nM
  14:0 SM level: 86.4023 percentage of the vehicle control group and 87.5076 percentage of the vehicle control group and 111.4 percentage of the vehicle control group and 123.229 percentage of the vehicle control group and 107.24 percentage of the vehicle control group and 105.555 percentage of the vehicle control group and 105.116 percentage of the vehicle control group and 89.1667 percentage of the vehicle control group
  16:0 Cer level: 108.507 percentage of the vehicle control group and 85.9381 percentage of the vehicle control group and 87.0921 percentage of the vehicle control group and 116.695 percentage of the vehicle control group and 104.33 percentage of the vehicle control group and 104.933 percentage of the vehicle control group and 106.707 percentage of the vehicle control group and 101.056 percentage of the vehicle control group
  16:0 HexCer level: 83.0725 percentage of the vehicle control group and 87.9406 percentage of the vehicle control group and 128.577 percentage of the vehicle control group and 99.1213 percentage of the vehicle control group and 108.606 percentage of the vehicle control group and 107.974 percentage of the vehicle control group and 99.8354 percentage of the vehicle control group and 80.4305 percentage of the vehicle control group
  16:0 SM level: 90.9817 percentage of the vehicle control group and 95.8078 percentage of the vehicle control group and 105.689 percentage of the vehicle control group and 116.265 percentage of the vehicle control group and 95.5779 percentage of the vehicle control group and 88.0621 percentage of the vehicle control group and 88.5464 percentage of the vehicle control group and 91.6422 percentage of the vehicle control group
  16:1 SM level: 86.5462 percentage of the vehicle control group and 91.7143 percentage of the vehicle control group and 104.066 percentage of the vehicle control group and 119.449 percentage of the vehicle control group and 101.997 percentage of the vehicle control group and 91.4576 percentage of the vehicle control group and 97.8179 percentage of the vehicle control group and 89.4979 percentage of the vehicle control group
  18:0 Cer level: 75.1597 percentage of the vehicle control group and 77.1381 percentage of the vehicle control group and 83.1016 percentage of the vehicle control group and 101.889 percentage of the vehicle control group and 100.455 percentage of the vehicle control group and 110.825 percentage of the vehicle control group and 90.177 percentage of the vehicle control group and 106.32 percentage of the vehicle control group
  18:0 SM level: 87.3577 percentage of the vehicle control group and 90.1399 percentage of the vehicle control group and 117.324 percentage of the vehicle control group and 82.3337 percentage of the vehicle control group and 88.9916 percentage of the vehicle control group and 83.1732 percentage of the vehicle control group and 88.0529 percentage of the vehicle control group
  18:1 SM level: 90.5796 percentage of the vehicle control group and 93.2037 percentage of the vehicle control group and 88.8318 percentage of the vehicle control group and 108.011 percentage of the vehicle control group and 95.5914 percentage of the vehicle control group and 79.238 percentage of the vehicle control group and 78.9032 percentage of the vehicle control group and 84.4686 percentage of the vehicle control group
  22:0 Cer level: 104.639 percentage of the vehicle control group and 100.078 percentage of the vehicle control group and 73.3754 percentage of the vehicle control group and 101.613 percentage of the vehicle control group and 114.746 percentage of the vehicle control group and 118.068 percentage of the vehicle control group and 114.641 percentage of the vehicle control group and 113.437 percentage of the vehicle control group
  22:0 HexCer level: 98.6933 percentage of the vehicle control group and 87.3308 percentage of the vehicle control group and 106.948 percentage of the vehicle control group and 113.522 percentage of the vehicle control group and 107.776 percentage of the vehicle control group and 119.187 percentage of the vehicle control group and 120.197 percentage of the vehicle control group and 88.6877 percentage of the vehicle control group
  22:0 SM level: 77.9336 percentage of the vehicle control group and 82.0524 percentage of the vehicle control group and 72.1049 percentage of the vehicle control group and 117.359 percentage of the vehicle control group and 120.117 percentage of the vehicle control group and 100.918 percentage of the vehicle control group and 103.279 percentage of the vehicle control group and 105.704 percentage of the vehicle control group
  22:1 SM level: 103.42 percentage of the vehicle control group and 102.614 percentage of the vehicle control group and 99.3902 percentage of the vehicle control group and 105.25 percentage of the vehicle control group and 111.738 percentage of the vehicle control group and 105.36 percentage of the vehicle control group and 88.0812 percentage of the vehicle control group and 91.3619 percentage of the vehicle control group
  24:0 HexCer level: 87.0807 percentage of the vehicle control group and 93.0525 percentage of the vehicle control group and 81.1451 percentage of the vehicle control group and 103.31 percentage of the vehicle control group and 112.306 percentage of the vehicle control group and 129.078 percentage of the vehicle control group and 103.585 percentage of the vehicle control group and 92.4822 percentage of the vehicle control group
  24:0 SM level: 97.1928 percentage of the vehicle control group and 98.2718 percentage of the vehicle control group and 75.7857 percentage of the vehicle control group and 112.798 percentage of the vehicle control group and 112.334 percentage of the vehicle control group and 114.303 percentage of the vehicle control group and 127.22 percentage of the vehicle control group and 98.002 percentage of the vehicle control group
  24:1 Cer level: 105.077 percentage of the vehicle control group and 87.804 percentage of the vehicle control group and 67.6975 percentage of the vehicle control group and 121.49 percentage of the vehicle control group and 108.722 percentage of the vehicle control group and 121.479 percentage of the vehicle control group and 112.469 percentage of the vehicle control group and 111.695 percentage of the vehicle control group
  24:1 HexCer level: 100.2 percentage of the vehicle control group and 101.908 percentage of the vehicle control group and 107.061 percentage of the vehicle control group and 109.845 percentage of the vehicle control group and 113.174 percentage of the vehicle control group and 115.061 percentage of the vehicle control group and 107.49 percentage of the vehicle control group and 96.3768 percentage of the vehicle control group
  24:1 SM level: 96.7947 percentage of the vehicle control group and 98.2864 percentage of the vehicle control group and 81.9082 percentage of the vehicle control group and 117.227 percentage of the vehicle control group and 113.319 percentage of the vehicle control group and 103.033 percentage of the vehicle control group and 103.816 percentage of the vehicle control group and 97.9548 percentage of the vehicle control group
HEK293 cells, P053 30 nM
  14:0 SM level: 116.988 percentage of the vehicle control group and 111.4 percentage of the vehicle control group and 100.814 percentage of the vehicle control group and 94.1513 percentage of the vehicle control group and 120.651 percentage of the vehicle control group and 105.592 percentage of the vehicle control group and 111.904 percentage of the vehicle control group and 100.551 percentage of the vehicle control group
  16:0 Cer level: 114.03 percentage of the vehicle control group and 105.56 percentage of the vehicle control group and 86.7073 percentage of the vehicle control group and 95.6011 percentage of the vehicle control group and 106.761 percentage of the vehicle control group and 98.8726 percentage of the vehicle control group and 108.159 percentage of the vehicle control group and 97.2516 percentage of the vehicle control group
  16:0 HexCer level: 79.9911 percentage of the vehicle control group and 81.3101 percentage of the vehicle control group and 74.3038 percentage of the vehicle control group and 88.8289 percentage of the vehicle control group and 99.9863 percentage of the vehicle control group and 95.9283 percentage of the vehicle control group and 102.652 percentage of the vehicle control group and 109.256 percentage of the vehicle control group
  16:0 SM level: 101.805 percentage of the vehicle control group and 101.307 percentage of the vehicle control group and 94.9476 percentage of the vehicle control group and 93.9555 percentage of the vehicle control group and 110.566 percentage of the vehicle control group and 97.2802 percentage of the vehicle control group and 102.981 percentage of the vehicle control group and 97.8958 percentage of the vehicle control group
  16:1 SM level: 104.561 percentage of the vehicle control group and 101.096 percentage of the vehicle control group and 98.3763 percentage of the vehicle control group and 109.464 percentage of the vehicle control group and 104.292 percentage of the vehicle control group and 104.01 percentage of the vehicle control group and 101.515 percentage of the vehicle control group
  18:0 Cer level: 72.2013 percentage of the vehicle control group and 69.2543 percentage of the vehicle control group and 56.626 percentage of the vehicle control group and 64.3691 percentage of the vehicle control group and 82.5432 percentage of the vehicle control group and 84.0607 percentage of the vehicle control group and 83.9582 percentage of the vehicle control group and 71.3957 percentage of the vehicle control group
  18:0 HexCer level: 55.7883 percentage of the vehicle control group and 64.0009 percentage of the vehicle control group and 45.6733 percentage of the vehicle control group and 59.2017 percentage of the vehicle control group and 57.5393 percentage of the vehicle control group and 74.8051 percentage of the vehicle control group and 77.6074 percentage of the vehicle control group
  18:0 SM level: 73.8483 percentage of the vehicle control group and 78.6872 percentage of the vehicle control group and 83.1913 percentage of the vehicle control group and 75.9206 percentage of the vehicle control group and 97.6949 percentage of the vehicle control group and 87.2321 percentage of the vehicle control group and 89.1916 percentage of the vehicle control group and 74.9956 percentage of the vehicle control group
  18:1 SM level: 87.9585 percentage of the vehicle control group and 73.1683 percentage of the vehicle control group and 79.2449 percentage of the vehicle control group and 71.4358 percentage of the vehicle control group and 96.5941 percentage of the vehicle control group and 87.3865 percentage of the vehicle control group and 81.7473 percentage of the vehicle control group and 78.1368 percentage of the vehicle control group
  20:0 Cer level: 62.7306 percentage of the vehicle control group and 109.856 percentage of the vehicle control group and 118.09 percentage of the vehicle control group and 96.2985 percentage of the vehicle control group and 100.9 percentage of the vehicle control group and 105.057 percentage of the vehicle control group and 91.6087 percentage of the vehicle control group
  22:0 Cer level: 116.044 percentage of the vehicle control group and 99.7524 percentage of the vehicle control group and 91.9349 percentage of the vehicle control group and 88.0267 percentage of the vehicle control group and 116.852 percentage of the vehicle control group and 103.772 percentage of the vehicle control group and 120.038 percentage of the vehicle control group and 118.899 percentage of the vehicle control group
  22:0 HexCer level: 90.0465 percentage of the vehicle control group and 79.6776 percentage of the vehicle control group and 76.0982 percentage of the vehicle control group and 95.044 percentage of the vehicle control group and 107.866 percentage of the vehicle control group and 100.167 percentage of the vehicle control group and 123.322 percentage of the vehicle control group and 116.268 percentage of the vehicle control group
  22:0 SM level: 128.14 percentage of the vehicle control group and 90.1111 percentage of the vehicle control group and 110.345 percentage of the vehicle control group and 114.556 percentage of the vehicle control group and 123.558 percentage of the vehicle control group and 116.784 percentage of the vehicle control group and 129.764 percentage of the vehicle control group and 100.326 percentage of the vehicle control group
  22:1 SM level: 99.3902 percentage of the vehicle control group and 113.946 percentage of the vehicle control group and 108.27 percentage of the vehicle control group and 113.134 percentage of the vehicle control group and 107.671 percentage of the vehicle control group and 100.443 percentage of the vehicle control group and 99.5068 percentage of the vehicle control group and 95.4079 percentage of the vehicle control group
  24:0 HexCer level: 96.4804 percentage of the vehicle control group and 86.7028 percentage of the vehicle control group and 84.7209 percentage of the vehicle control group and 91.5325 percentage of the vehicle control group and 104.127 percentage of the vehicle control group and 98.7325 percentage of the vehicle control group and 129.497 percentage of the vehicle control group and 115.717 percentage of the vehicle control group
  24:0 SM level: 114.636 percentage of the vehicle control group and 105.214 percentage of the vehicle control group and 97.3725 percentage of the vehicle control group and 90.2877 percentage of the vehicle control group and 117.867 percentage of the vehicle control group and 114.443 percentage of the vehicle control group and 132.815 percentage of the vehicle control group and 128.722 percentage of the vehicle control group
  24:1 Cer level: 117.491 percentage of the vehicle control group and 102.844 percentage of the vehicle control group and 87.9247 percentage of the vehicle control group and 98.6487 percentage of the vehicle control group and 120.911 percentage of the vehicle control group and 109.977 percentage of the vehicle control group and 130.805 percentage of the vehicle control group and 124.062 percentage of the vehicle control group
  24:1 HexCer level: 93.843 percentage of the vehicle control group and 87.9781 percentage of the vehicle control group and 89.6469 percentage of the vehicle control group and 99.7739 percentage of the vehicle control group and 102.587 percentage of the vehicle control group and 104.249 percentage of the vehicle control group and 119.244 percentage of the vehicle control group and 107.968 percentage of the vehicle control group
  24:1 SM level: 102.826 percentage of the vehicle control group and 100.942 percentage of the vehicle control group and 98.397 percentage of the vehicle control group and 94.2567 percentage of the vehicle control group and 116.83 percentage of the vehicle control group and 103.091 percentage of the vehicle control group and 120.071 percentage of the vehicle control group and 112.514 percentage of the vehicle control group
HEK293 cells, P053 100 nM
  14:0 SM level: 112.517 percentage of the vehicle control group and 90.2734 percentage of the vehicle control group and 104.152 percentage of the vehicle control group and 104.709 percentage of the vehicle control group and 117.225 percentage of the vehicle control group and 115.891 percentage of the vehicle control group and 108.424 percentage of the vehicle control group and 118.856 percentage of the vehicle control group
